{
  "source": "patent US7122563B2",
  "about": "“Derivatives of 4-demethylpenclomedine, use thereof and preparation thereof” (Southern Research Institute, priority 2005, dated 2006)",
  "key": {"[1]": {"conditions": "rats; cited from earlier work"}, "[2]": {"tested_on": "MX-1 Mammary Tumor", "assay": "MX-1 mammary tumor implanted in the mammary fat pad of mice, i.p. treatment"}, "[3]": {"tested_on": "U251 human glioblastoma xenograft", "assay": "Intracranially-implanted U251 human glioblastoma xenograft, survival", "format": "in vivo", "conditions": "for increase in life span (ILS): intracranially-implanted U251, side-by-side experiment", "excerpt": "(§1) Treatment of i.c. implants is initiated 1 day after tumor implantation and continued for 5 days. Mice are monitored daily for survival."}, "[4]": {"tested_on": "D54 human glioblastoma multiforme", "assay": "Intracranially-implanted D54 human glioblastoma multiforme, survival", "format": "in vivo", "excerpt": "as §1"}, "[5]": {"assay": "Behavioral test of neurotoxicity (tremors)", "format": "in vivo", "conditions": "DM-SMTC-PEN evaluated simultaneously with PEN", "excerpt": "A major concern for the penclomedine (PEN) series of derivatives is their possible neurotoxicity. PEN was removed from clinical development as a potential drug for treating breast cancer because of its dose-limiting neurotoxicity."}, "[6]": {"conditions": "after both intravenous and oral administration, related to peak plasma levels; cited from earlier work"}, "[7]": {"conditions": "IP 135 mg/kg/dose, Days 15–19, groups of 5 mice"}, "[8]": {"conditions": "IP 135 mg/kg/dose, Days 13-17, groups of 5 mice"}, "[9]": {"conditions": "IP 60 mg/kg/dose, Days 15–19, groups of 5 mice"}},
  "data": [
    {"smiles": "COc1nc(C(Cl)(Cl)Cl)c(Cl)c(O)c1Cl", "note": "[4-DM-PEN, 3,5-Dichloro-2-methoxy-4-hydroxy-6-(trichloromethyl)pyridine, reference compound]", "values": [
      {"measurement": "cerebellar damage", "setting": "[1]", "value": "cerebellar damage only in the PEN-treated group"},
      {"measurement": "Growth Delay (T-C)", "setting": "[2]; IP 135 mg/kg/dose, Days 15–19", "value": 32.8},
      {"measurement": "Tumor-free Survivors", "setting": "[2]; IP 135 mg/kg/dose, Days 15–19", "value": "0/5"},
      {"measurement": "Regressions Complete", "setting": "[2]; [7]", "value": 0},
      {"measurement": "Regressions Partial", "setting": "[2]; [7]", "value": 2}
    ]},
    {"smiles": "CCN(CC)C(=S)Oc1c(Cl)c(OC)nc(C(Cl)(Cl)Cl)c1Cl", "note": "[DM-DETC-PEN]", "values": [
      {"measurement": "Growth Delay (T-C)", "setting": "[2]; IP 135 mg/kg/dose, Days 15–19", "value": ">35.2"},
      {"measurement": "Tumor-free Survivors", "setting": "[2]; IP 135 mg/kg/dose, Days 15–19", "value": "1/5"},
      {"measurement": "Regressions Complete", "setting": "[2]; [7]", "value": 1},
      {"measurement": "Regressions Partial", "setting": "[2]; [7]", "value": 1}
    ]},
    {"smiles": "COc1nc(C(Cl)(Cl)Cl)c(Cl)c(OC(=S)N(C)C)c1Cl", "note": "[DM-DMTC-PEN]", "values": [
      {"measurement": "increase in life span (ILS)", "setting": "[3]", "value": 44, "unit": "%"},
      {"measurement": "Growth Delay (T-C)", "setting": "[2]; IP 135 mg/kg/dose, Days 13-17", "value": ">37.0"},
      {"measurement": "Tumor-free Survivors", "setting": "[2]; IP 135 mg/kg/dose, Days 13-17", "value": "3/5"},
      {"measurement": "Regressions Complete", "setting": "[2]; [8]", "value": 4},
      {"measurement": "Regressions Partial", "setting": "[2]; [8]", "value": 1}
    ]},
    {"smiles": "CCSC(=O)Oc1c(Cl)c(OC)nc(C(Cl)(Cl)Cl)c1Cl", "note": "[DM-SETC-PEN]", "values": [
      {"measurement": "Growth Delay (T-C)", "setting": "[2]; IP 60 mg/kg/dose, Days 15–19", "value": ">35.2"},
      {"measurement": "Tumor-free Survivors", "setting": "[2]; IP 60 mg/kg/dose, Days 15–19", "value": "1/5"},
      {"measurement": "Regressions Complete", "setting": "[2]; [9]", "value": 2},
      {"measurement": "Regressions Partial", "setting": "[2]; [9]", "value": 3}
    ]},
    {"smiles": "COc1nc(C(Cl)(Cl)Cl)c(Cl)c(OC(=O)SC)c1Cl", "note": "[DM-SMTC-PEN]", "values": [
      {"measurement": "activity against intracranially-implanted U251", "setting": "[3]; compared with the acyl derivatives", "value": "comparably active to the acyl derivatives"},
      {"measurement": "increase in life span (ILS)", "setting": "[3]", "value": 56, "unit": "%"},
      {"measurement": "increase in life span", "setting": "[4]", "value": 18, "unit": "%"},
      {"measurement": "neurotoxicity (production of tremors)", "setting": "[5]", "value": "non-neurotoxic"},
      {"measurement": "Growth Delay (T-C)", "setting": "[2]; IP 60 mg/kg/dose, Days 15–19", "value": ">41.6"},
      {"measurement": "Tumor-free Survivors", "setting": "[2]; IP 60 mg/kg/dose, Days 15–19", "value": "2/5"},
      {"measurement": "Regressions Complete", "setting": "[2]; [9]", "value": 2},
      {"measurement": "Regressions Partial", "setting": "[2]; [9]", "value": 2}
    ]},
    {"smiles": "COc1nc(C(Cl)(Cl)Cl)c(Cl)c(OC(=O)Sc2ccccc2)c1Cl", "note": "[DM-SPTC-PEN]", "values": [
      {"measurement": "Growth Delay (T-C)", "setting": "[2]; IP 135 mg/kg/dose, Days 15–19", "value": ">35.2"},
      {"measurement": "Tumor-free Survivors", "setting": "[2]; IP 135 mg/kg/dose, Days 15–19", "value": "1/5"},
      {"measurement": "Regressions Complete", "setting": "[2]; [7]", "value": 2},
      {"measurement": "Regressions Partial", "setting": "[2]; [7]", "value": 2}
    ]},
    {"smiles": "COc1nc(C(Cl)(Cl)Cl)c(Cl)c(OC)c1Cl", "note": "[PEN, 3,5-dichloro-2,4-dimethoxy-6-(trichloromethyl) pyridine]", "values": [
      {"measurement": "neurotoxicity (production of tremors)", "setting": "[5]", "value": "production of tremors"},
      {"measurement": "neurotoxicity in clinical trials", "setting": "[6]", "value": "dose-limiting neurotoxicity was observed"},
      {"measurement": "cerebellar damage", "setting": "[1]", "value": "cerebellar damage only in the PEN-treated group"}
    ]}
  ]
}
